# Laboratory results from patent US20250205200A1, “5-METHOXY-N,N-[…][…] THE TREATMENT OF […]” (GH RESEARCH IRELAND LIMITED, priority 2022, published 2025).
# Key:
# [1] = Pharmacokinetics of 5-MeO-DMT and bufotenine after inhalation; format: in vivo, human
# [2] = test system: Escherichia coli (WP2 uvrA pKM101); test: Bacterial mutation test, Escherichia coli; format: cell-based; settings: up to 5000 μg/plate; absence and presence of S-9
# Protocol: These conditions included treatments at concentrations up to 5000 μg/plate (the maximum recommended concentration according to current regulatory guidelines), in the absence and in the presence of a rat liver metabolic activation system (S-9).
smiles,measurement,setting,value
COc1ccc2[nH]cc(CCN(C)C)c2c1 [5-MeO-DMT],Plasma concentration as % of Cmax,"[1]; 10 minutes after inhalation, 6, 12, 18 mg",≤ 10 % of Cmax
same,Plasma concentration as % of Cmax,"[1]; 2 hours after inhalation, 6, 12, 18 mg",≤ 1 % of Cmax
same,Detectability in the plasma,"[1]; 3 hours after inhalation, 6, 12, 18 mg",no longer detectable
same,Time of maximum concentrations and pharmacological effects,[1]; inhaled,during and immediately after dosing
same,Accumulation upon repeated administration,[1]; repeated administration within 1 to 4 hours,No accumulation
same,Induction of mutation,[2],did not induce mutation
